ChEMBL document CHEMBL5120746, “Novel 5-fluorouracil sensitizers for colorectal cancer therapy: Design and synthesis of S1P receptor 2 (S1PR2) antagonists” (Eur J Med Chem, 2022)

Legend:
[1] = test system: NCM460; experiment: Cytotoxicity against human NCM460 cells assessed as reduction in cell viability at 5 to 80 uM; format: toxicity, cell-based; conditions: ncm460, 80 µM, dose 5-80 µM
[2] = Downregulation of S1PR2 mRNA expression level in human SW620/5-FU cells at 20 uM measured after 24 hrs by qRT-PCR analysis; format: functional
[3] = target: Sphingosine 1-phosphate receptor 2 (Homo sapiens, UniProt O95136); experiment: Antagonist activity at S1PR2 in human SW620/5-FU cells assessed as reduction of DPD-catalyzed 5-FU degradation by measuring intracellular 5-FU level at 20 uM measured after 24 hrs by HPLC-UV analysis; format: functional, cell-based; conditions: filed as antagonist
Chain of Sphingosine 1-phosphate receptor 2 (O95136 whole entry): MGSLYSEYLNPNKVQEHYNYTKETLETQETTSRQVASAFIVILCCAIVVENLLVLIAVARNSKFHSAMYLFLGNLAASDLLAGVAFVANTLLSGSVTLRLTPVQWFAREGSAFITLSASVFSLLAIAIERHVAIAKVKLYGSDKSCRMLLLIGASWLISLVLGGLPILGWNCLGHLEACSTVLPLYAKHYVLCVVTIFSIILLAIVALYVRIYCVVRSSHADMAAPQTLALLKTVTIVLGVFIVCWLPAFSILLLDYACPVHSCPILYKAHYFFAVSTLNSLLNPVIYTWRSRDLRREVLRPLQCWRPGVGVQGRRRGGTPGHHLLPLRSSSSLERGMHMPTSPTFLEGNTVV

[4] = Initial drug concentration in Sprague-Dawley rat blood at 1 mg/kg, iv measured up to 24 hrs by HPLC-MS/MS analysis; format: ADME, organism-based
[5] = Half life in Sprague-Dawley rat blood at 1 mg/kg, iv measured up to 24 hrs by HPLC-MS/MS analysis; format: ADME, organism-based
[6] = AUC (0 to infinity) in Sprague-Dawley rat blood at 1 mg/kg, iv measured up to 24 hrs by HPLC-MS/MS analysis; format: ADME, organism-based; set-up: dose 1 mg/kg, time < 24 hrs, route iv
[7] = Apparent volume of distribution in Sprague-Dawley rat blood at 1 mg/kg, iv measured up to 24 hrs by HPLC-MS/MS analysis; format: ADME, organism-based; conditions: read-out: Vd(app)
[8] = Clearance in Sprague-Dawley rat blood at 1 mg/kg, iv measured up to 24 hrs by HPLC-MS/MS analysis; format: ADME, organism-based
[9] = Initial drug concentration in Sprague-Dawley rat plasma at 1 mg/kg, iv measured up to 24 hrs by HPLC-MS/MS analysis; format: ADME, organism-based
[10] = test system: SW620/5-FU; experiment: Antitumor activity against human SW620/5-FU cells xenografted in SPF nude mouse assessed as tumor growth inhibition at 7.5 mg/kg, iv QD for 21 days and measured every 4 days in presence of 5-fluorouracil; format: functional; conditions: 504 h, time 21 day, read-out: TGI
[11] = test system: SW620/5-FU; experiment: Antitumor activity against human SW620/5-FU cells xenografted in SPF nude mouse assessed as reduction in tumor weight at 15 mg/kg, iv QD for 21 days; format: functional; set-up: scale not given: the % may be the effect or the level left; conditions: time 21 day
[12] = Downregulation of DPD expression in tumor of SPF nude mouse xenografted with human SW620/5-FU cells at 30 mg/kg, iv QD for 21 days in presence of 5-fluorouracil by Western blot analysis; format: functional; conditions: time 21 day

Activity [3]: 7.8 µM | C0 at 24 h [4]: 4970 ng/mL | half-life [5]: 6 h | AUC(0-inf) [6]: 11200 ng·h/mL | Vd [7]: 1.8 L/kg | clearance [8]: 1.5 mL/min/kg | C0 at 24 h [9]: 4040 ng/mL
Structure (SMILES): Cn1ncc2c(-c3ccc(F)cc3)cc(NNC(=O)Nc3cc(Cl)nc(Cl)c3)nc21
Activity [1]: Toxic | Activity [2]: 25% | inhibition in vivo at 7.5 mg/kg [10]: 43.2% | Activity [11]: 12.34% | Activity [12]: 0.05
